# Key:
# [1] = Acidity determined spectrometrically; assay type: ADME
# [2] = Partition coefficient (logP); assay type: physicochemical; conditions: octanol/water
# [3] = Acidity of compound was determined; assay type: ADME
compound,measurement,setting,value
NCC(O)c1ccc2c(c1)NS(=O)(=O)N2 (stereo unspecified),pKa,[1],4.68
CNCC(O)c1ccc2c(c1)NS(=O)(=O)N2 (stereo unspecified),pKa,[1],4.67
O=S(=O)(CF)Nc1ccccc1,logP,[2],1.35
same,pKa,[3],7.53
CS(=O)(=O)Nc1ccccc1,logP,[2],0.95
same,pKa,[3],8.85
CC(C)NCC(O)c1ccc2c(c1)NS(=O)(=O)N2 (stereo unspecified),pKa,[1],4.68
O=S1(=O)Nc2ccccc2N1,logP,[2],1.12
same,pKa,[3],5.26
CC(C)NCC(O)c1ccc(NS(=O)(=O)C(F)(F)F)cc1 (stereo unspecified),pKa,[1],3.65
CC(C)(C)NCC(O)c1ccc2c(c1)NS(=O)(=O)N2 (stereo unspecified),pKa,[1],4.7
CC(C)NCC(O)c1cccc(NS(=O)(=O)C(F)(F)F)c1 (stereo unspecified),pKa,[1],3.63
O=S(=O)(Nc1ccccc1)C(F)(F)F,logP,[2],3.03
same,pKa,[3],4.45
Oc1cccc(O)c1 [RESORCINOL],logP,[2],0.85
same,pKa,[3],9.5

# From ChEMBL document CHEMBL1121741, “Acidic epinephrine analogues derived from 1H, 3H-2,1,3-benzothiadiazole 2,2-dioxide and from trifluoromethanesulfonanilide. A new synthesis of 1H,3H-2,1,3-benzothiadiazole 2,2-dioxide” (J Med Chem, 1981)
